Non-standard residues stand in square brackets, D forms with d. Residues, ends and D or L forms follow the SMILES beside them.
Columns and labels:
CBP/P300 = assay: Streptavidin affinity purification of CBP/P300 from MV-411 cell extracts with BIO-MYBMIM, with peptide competition; type: binding, human; conditions: 20-fold molar excess free peptide, MV-411 extracts, western blot
Method: Cells were lysed in RIPA buffer (Thermo Fisher) supplemented with a protease inhibitor mix comprised of AEBSF (0.5 mM concentration, Santa Cruz, SC-202041B), Bestatin (0.01 mM, Fisher/Alfa Aesar, J61106-MD), Leupeptin (0.1 mM, Santa Cruz, SC-295358B), and Pepstatin (0.001 mM, Santa Cruz, SC-45036A). Lysates were mechanically disrupted using Covaris S220 adaptive focused sonicator, according to the manufacturer’s instructions (Covaris, Woburn, CA). Lysates were cleared by centrifugation for 15 min at 18,000 × g and clarified lysates were quantified using the bicinchoninic acid assay (Pierce). Clarified lysates (20 μg of protein) were resolved using sodium dodecyl sulfate-polyacrylamide gel electrophoresis, and electroeluted using the Immobilon FL PVDF membranes (Millipore, Billerica, MA, USA). Membranes were blocked using the Odyssey Blocking buffer (Li-Cor, Lincoln, Nebraska, USA). The following primary antibodies were used as indicated: anti-MYB (1:1000, 05-175, Millipore), anti-CBP (1:1000, PA1-847, Invitrogen), anti-BCL2 (1:1000, 200-401-222, Rockland), anti-β actin (1:1000, 8H10D10, Cell Signaling). […] Blotted membranes were visualized using secondary antibodies conjugated to IRDye 800CW or IRDye 680RD (Goat anti-rabbit, 1:15,000, and goat anti-mouse, 1:15,000) and the Odyssey CLx fluorescence scanner, according to manufacturer’s instructions (Li-Cor, Lincoln, Nebraska, USA). […]

MV-411 cells = assay: MYB ChIP-seq; type: cell-based, human; conditions: 20 µM, 6 h, 3 biological replicates
Method: ChIP was performed as previously described. Briefly, cells were fixed in 1% formalin in phosphate-buffered saline (PBS) for 10 minutes at room temperature. Glycine (125 mM final concentration) and Tris-HCl pH 8 (100 mM final concentration) were added to the cells and cells were washed twice in ice-cold PBS and resuspended in sodium dodecyl sulfate (SDS) lysis buffer (1% SDS, 10 mM EDTA, 50 mM Tris–HCl, pH 8.1). Lysates were sonicated using the Covaris S220 adaptive focused sonicator to obtain 100–500 bp chromatin fragments (Covaris, Woburn, CA). Lysates containing sheared chromatin fragments were resuspended in 0.01% SDS, 1.1% Triton-X100, 1.2 mM EDTA, 16.7 mM Tris–HCl, pH 8.1,167 mM NaCl. Lysates and antibody-coupled beads were incubated over night at 4 °C. […] Libraries were sequenced on the Illumina HiSeq 2500 instruments, with 30 million 2 × 50 bp paired reads.
For ChIP-seq analysis, reads were quality and adapter trimmed using ‘trim_galore’ before aligning to human genome assembly hg19 with bwa mem using the default parameters. Aligned reads with the same start position and orientation were collapsed to a single read before subsequent analysis. Density profiles were created by extending each read to the average library fragment size and then computing density using the BEDTools suite. Enriched regions were discovered using MACS 2.0 and scored against matched input libraries. […]

AML cells = assay: Flow cytometry of differentiation markers; type: cell-based, human
Method: Cells were resuspended to a concentration of 1 × 10^6 cells were plated in triplicate in a 12-well tissue culture plate. For assessment of annexin V staining, cells were washed with PBS and then resuspended in PBS with Annexin V-APC (BioLegend) and propidium iodide at a dilution of 1:1000. For intracellular detection of cleaved caspase 3, cells were fixed and permeabilized using the BD Cytofix/Cytoperm Fixation/Permeabilization solution according to the manufacturer’s instructions (BD Biosciences). Cells were then stained using the Alexa Fluor 647-conjugated anti-active caspase-3 (BD Biosciences) at a dilution of 1:50. Cells were incubated for 30 minutes room temperature in the dark, washed, and then analyzed using the BD LSRFortessa cell analyzer. For assessment of differentiation, cells were stained using the anti-human CD14 PE at a dilution of 1:20 (Affymetrix eBiosciences) and anti-human CD66b at a dilution of 1:20 (Affymetrix eBiosciences).

CC[C@@H](C)[C@@H](NC(=O)[C@@H](CCCCN)NC(=O)[C@@H](CCC(=O)O)NC(=O)[C@@H](CC(C)C)NC(=O)[C@@H](CCC(=O)O)NC(=O)[C@@H](CC(C)C)NC(=O)[C@@H](CC(C)C)NC(=O)[C@@H](CC(C)C)NC(=O)[C@@H](CCSC)NC(=O)[C@@H](CO)NC(=O)[C@H](NC(=O)[C@@H](CCC(=O)O)NC(=O)[C@@H](CC(N)=O)NC(=O)[C@@H](CCC(=O)O)NC(=O)[C@@H](CC(C)C)NC(=O)[C@@H](CCCCN)NC(C)=O)[C@H](C)O)C(=O)N[C@H](CCCNC(=N)N)C(=O)N[C@H](CCCCN)C(=O)NCC(=O)NCC(=O)N[C@H](CCCNC(=N)N)C(=O)N[C@H](CCCNC(=N)N)C(=O)N[C@H](CCCNC(=N)N)C(=O)N[C@H](CCC(N)=O)C(=O)N[C@H](CCCNC(=N)N)C(=O)N[C@H](CCCNC(=N)N)C(=O)N[C@H](CCCCN)C(=O)N[C@H](CCCCN)C(=O)N[C@H](CCCNC(=N)N)C(=O)NCC(=O)N[C@H](Cc1ccc(O)cc1)C(N)=O [MYBMIM] (Ac-[dK][dL][dE][dN][dE][dT][dS][dM][dL][dL][dL][dE][dL][dE][dK][dI][dR][dK]GG[dR][dR][dR][dQ][dR][dR][dK][dK][dR]G[dY]-NH2)
Displacement of cellular CBP/P300 from BIO-MYBMIM beads by free peptide (CBP/P300): displacement of cellular CBP/P300
MYB complexes bound to promoters and enhancers eliminated (MV-411 cells): 2,690
CD14, CD66b and CD11b expression (AML cells): no significant changes

Source: publication PMC5760651, “Peptidomimetic blockade of MYB in acute myeloid leukemia” (Nature Communications, 2018)
